# Reference: PubChem BioAssay (NCI)
#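 Values below derive from 48-hour exposures of cells grown in 96-well plates, with endpoints linearly interpolated between the two concentrations bracketing the appropriate inhibition level. TGI marks complete inhibition of growth.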
# How the values were obtained:
# Experiment in all cases: DTP human tumour cell line panel, 48 h
# SK-MEL-28 melanoma = test system: SK-MEL-28 melanoma
# SNB-19 CNS = test system: SNB-19 CNS
# ACHN renal = test system: ACHN renal
# MDA-N = test system: MDA-N
# BT-549 breast = test system: BT-549 breast
# CCRF-CEM leukemia = test system: CCRF-CEM leukemia
# IGROV1 ovarian = test system: IGROV1 ovarian
# SN12C renal = test system: SN12C renal
# LOX IMVI melanoma = test system: LOX IMVI melanoma
# U251 CNS = test system: U251 CNS
# 786-0 renal = test system: 786-0 renal
# HOP-92 NSCLC = test system: HOP-92 NSCLC
# M19-MEL melanoma = test system: M19-MEL melanoma
# SNB-78 CNS = test system: SNB-78 CNS
# XF 498 CNS = test system: XF 498 CNS
# HOP-18 NSCLC = test system: HOP-18 NSCLC
# DLD-1 colon = test system: DLD-1 colon
# KM20L2 colon = test system: KM20L2 colon
# SN12K1 renal = test system: SN12K1 renal
SMILES,TGI (SK-MEL-28 melanoma) [µM],TGI (SNB-19 CNS) [µM],TGI (ACHN renal) [µM],TGI (MDA-N) [µM],TGI (BT-549 breast) [µM],TGI (CCRF-CEM leukemia) [µM],TGI (IGROV1 ovarian) [µM],TGI (SN12C renal) [µM],TGI (LOX IMVI melanoma) [µM],TGI (U251 CNS) [µM],TGI (786-0 renal) [µM],TGI (HOP-92 NSCLC) [µM],TGI (M19-MEL melanoma) [µM],TGI (SNB-78 CNS) [µM],TGI (XF 498 CNS) [µM],TGI (HOP-18 NSCLC) [µM],TGI (DLD-1 colon) [µM],TGI (KM20L2 colon) [µM],TGI (SN12K1 renal) [µM]
CC1OC(OC2C[C@](O)(C(=O)CBr)Cc3c(O)c4c(c(O)c32)C(=O)c2ccccc2C4=O)C(F)C(O)C1O (some centres undefined),> 66.1,> 70.5,7.08,44.7,> 100,3.04,60.9,> 73.3,35.8,> 74.7,> 59.5,40.6,–,–,–,–,–,–,–
CSS(C)(=O)=O,48,> 100,56.9,–,–,> 100,45.2,45.3,> 100,> 100,> 100,–,–,–,–,–,–,–,–
COc1ccc(-c2c3c(nc4[nH]c(=S)[nH]c(=S)c24)CCCC3)cc1OC,70.7,> 100,> 100,> 100,> 100,73.1,76.2,86.2,45.3,39.6,–,–,–,–,–,–,–,–,–
CC(=O)OCc1nnn2c1CCC2,> 100,–,> 100,–,–,> 100,> 100,> 100,> 100,> 100,–,> 100,> 100,> 100,> 100,> 100,> 100,> 100,–
COc1ccc(OCC(C)(C)O)cc1,> 100,> 100,–,–,–,> 100,> 100,> 100,> 100,> 100,–,> 100,–,> 100,> 100,> 100,> 100,> 100,> 100
CCCCCCC(=O)c1ccc2ccccc2c1O,> 100,> 100,> 100,–,> 100,> 100,> 100,–,> 100,> 100,> 100,> 100,–,–,–,–,–,–,–
